Laboratory results: ChEMBL document CHEMBL4321837, “Discovery of Potent and Orally Effective Dual Janus Kinase 2/FLT3 Inhibitors for the Treatment of Acute Myelogenous Leukemia and Myeloproliferative Neoplasms” (J Med Chem, 2019)
Activity calls are given as the source filed them. The rule behind the calls is not given here.

How the values were obtained:
[1] = AUC (0 to t) in Sprague-Dawley rat at 5 mg/kg, po measured up to 24 hrs by LC/MS/MS analysis; assay type: ADME, organism-based; parameters: dose 5 mg/kg, time < 24 hr, route oral; settings: in vivo, 24 h
[2] = tested on: SET-2; assay: Antitumor activity against human SET2 cells overexpressing JAK2 V617F mutant xenografted in NOD/SCID mouse assessed as tumor growth inhibition at 60 mg/kg, po qd for 18 days measured every 2 days for 18 days by caliper method relative to control; assay type: functional; settings: SET-2, po, read-out: TGI
[3] = biological target: Cytochrome P450 2C19 (Homo sapiens, UniProt P33261); assay: Inhibition of CYP2C19 (unknown origin); assay type: ADME
[4] = tested on: MV4-11; assay: Induction of apoptosis in human MV4-11 cells assessed as early apoptotic cells at 0.2 uM after 24 hrs by Annexin V FITC/PI staining based flow cytometry analysis (reference value: 2.14%); assay type: functional
[5] = Half life in dog liver microsomes; assay type: ADME, Canis lupus familiaris, Microsome
[6] = tested on: MV4-11; assay: Induction of cell cycle arrest in human MV4-11 cells assessed as accumulation at G0/G1 phase at 0.005 uM after 24 hrs by propidium iodide staining based flow cytometry analysis (reference value: 54.49%); assay type: functional
[7] = Intrinsic clearance in dog liver microsomes; assay type: ADME, Canis lupus familiaris, Microsome
[8] = species on record: Homo sapiens; assay: Inhibition of JAK2 V617F mutant/FLT3 in human SET2 cells assessed as reduction in FLT3 phosphorylation after 2 hrs by Western blot analysis; assay type: cell-based
[9] = tested on: MV4-11; assay: Induction of cell cycle arrest in human MV4-11 cells assessed as accumulation at S phase at 0.01 uM after 24 hrs by propidium iodide staining based flow cytometry analysis (reference value: 30.11%); assay type: functional
[10] = tested on: MDA-MB-231; assay: Antiproliferative activity against human MDA-MB-231 cells assessed as reduction in cell growth after 72 hrs by MTT assay; assay type: functional, cell-based
[11] = biological target: JAK3/JAK1 (Homo sapiens, UniProt P23458+P52333); assay: Inhibition of JAK1/JAK3 in human THP-1 cells assessed as reduction in IL-4-induced STAT6 phosphorylation by flow cytometry; assay type: cell-based
[12] = Anti-myelofibrosis activity against mouse BAF3(transformed) cells harboring with JAK2 V617F mutant allografted in NOD/SCID mouse assessed as reduction in liver weight at 60 mg/kg, po qd for 20 days measured on day 25 relative to control; assay type: functional
[13] = Half life in monkey liver microsomes; assay type: ADME, Macaca mulatta, Microsome; settings: rhesus monkey
[14] = biological target: Cytochrome P450 1A2 (Homo sapiens, UniProt P05177); assay: Inhibition of CYP1A2 (unknown origin); assay type: ADME
[15] = biological target: Cytochrome P450 3A4 (Homo sapiens, UniProt P08684); assay: Inhibition of CYP3A4 (unknown origin); assay type: ADME
[16] = biological target: Receptor-type tyrosine-protein kinase FLT3 (Homo sapiens, UniProt P36888, D835Y); assay: Inhibition of recombinant human FLT3 D835Y mutant (564 to end residues) using EAIYAAPFAKKK as substrate incubated for 40 mins in presence of [gamma33P]-ATP by scintillation counting based radiometry assay
[17] = tested on: MV4-11; assay: Induction of cell cycle arrest in human MV4-11 cells assessed as accumulation at S phase at 0.05 uM after 24 hrs by propidium iodide staining based flow cytometry analysis (reference value: 30.11%); assay type: functional
[18] = tested on: MV4-11; assay: Induction of cell cycle arrest in human MV4-11 cells assessed as accumulation at G2/M phase at 0.1 uM after 24 hrs by propidium iodide staining based flow cytometry analysis (reference value: 15.4%); assay type: functional

Cytochrome P450 3A4, sequence (P08684 whole entry): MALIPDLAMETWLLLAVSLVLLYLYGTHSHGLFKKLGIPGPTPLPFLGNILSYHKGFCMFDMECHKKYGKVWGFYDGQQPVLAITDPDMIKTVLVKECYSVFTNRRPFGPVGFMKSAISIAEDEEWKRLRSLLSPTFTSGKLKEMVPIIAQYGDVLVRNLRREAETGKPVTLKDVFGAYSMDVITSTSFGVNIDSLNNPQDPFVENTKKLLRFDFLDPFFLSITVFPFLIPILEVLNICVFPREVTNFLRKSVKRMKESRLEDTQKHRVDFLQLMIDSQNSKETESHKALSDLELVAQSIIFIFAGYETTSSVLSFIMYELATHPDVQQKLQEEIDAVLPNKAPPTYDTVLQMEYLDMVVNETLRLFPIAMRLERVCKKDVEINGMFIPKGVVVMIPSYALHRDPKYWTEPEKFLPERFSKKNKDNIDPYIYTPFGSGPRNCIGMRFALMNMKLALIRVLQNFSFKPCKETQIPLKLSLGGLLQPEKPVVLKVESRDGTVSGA
Cytochrome P450 1A2, sequence (P05177 whole entry): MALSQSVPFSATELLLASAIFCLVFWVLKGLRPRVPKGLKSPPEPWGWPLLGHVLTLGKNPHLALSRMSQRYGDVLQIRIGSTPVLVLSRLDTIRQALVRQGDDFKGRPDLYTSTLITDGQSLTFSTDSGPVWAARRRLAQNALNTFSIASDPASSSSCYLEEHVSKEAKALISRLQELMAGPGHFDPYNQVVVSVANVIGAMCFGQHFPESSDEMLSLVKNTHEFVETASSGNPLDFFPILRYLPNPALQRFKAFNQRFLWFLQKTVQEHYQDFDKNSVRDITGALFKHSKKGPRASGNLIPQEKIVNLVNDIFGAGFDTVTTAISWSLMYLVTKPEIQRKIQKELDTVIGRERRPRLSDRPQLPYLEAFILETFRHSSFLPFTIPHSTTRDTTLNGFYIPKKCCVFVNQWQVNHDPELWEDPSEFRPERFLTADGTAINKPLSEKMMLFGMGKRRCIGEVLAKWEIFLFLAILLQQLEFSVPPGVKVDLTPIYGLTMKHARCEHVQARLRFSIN
Cytochrome P450 2C19, sequence (P33261 whole entry): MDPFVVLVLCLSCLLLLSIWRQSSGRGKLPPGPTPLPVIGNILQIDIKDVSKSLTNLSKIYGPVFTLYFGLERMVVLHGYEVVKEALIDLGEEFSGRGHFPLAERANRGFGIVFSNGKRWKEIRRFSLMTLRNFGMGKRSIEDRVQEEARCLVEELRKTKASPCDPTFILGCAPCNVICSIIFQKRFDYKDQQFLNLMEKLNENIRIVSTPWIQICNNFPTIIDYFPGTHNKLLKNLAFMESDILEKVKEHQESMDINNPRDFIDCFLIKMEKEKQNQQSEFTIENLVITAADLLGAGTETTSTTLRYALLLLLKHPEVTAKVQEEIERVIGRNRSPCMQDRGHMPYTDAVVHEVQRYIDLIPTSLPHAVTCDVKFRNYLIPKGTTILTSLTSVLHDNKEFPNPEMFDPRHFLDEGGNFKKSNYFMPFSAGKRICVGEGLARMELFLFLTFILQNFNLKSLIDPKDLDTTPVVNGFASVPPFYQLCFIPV
JAK3/JAK1, sequence (P52333 whole entry): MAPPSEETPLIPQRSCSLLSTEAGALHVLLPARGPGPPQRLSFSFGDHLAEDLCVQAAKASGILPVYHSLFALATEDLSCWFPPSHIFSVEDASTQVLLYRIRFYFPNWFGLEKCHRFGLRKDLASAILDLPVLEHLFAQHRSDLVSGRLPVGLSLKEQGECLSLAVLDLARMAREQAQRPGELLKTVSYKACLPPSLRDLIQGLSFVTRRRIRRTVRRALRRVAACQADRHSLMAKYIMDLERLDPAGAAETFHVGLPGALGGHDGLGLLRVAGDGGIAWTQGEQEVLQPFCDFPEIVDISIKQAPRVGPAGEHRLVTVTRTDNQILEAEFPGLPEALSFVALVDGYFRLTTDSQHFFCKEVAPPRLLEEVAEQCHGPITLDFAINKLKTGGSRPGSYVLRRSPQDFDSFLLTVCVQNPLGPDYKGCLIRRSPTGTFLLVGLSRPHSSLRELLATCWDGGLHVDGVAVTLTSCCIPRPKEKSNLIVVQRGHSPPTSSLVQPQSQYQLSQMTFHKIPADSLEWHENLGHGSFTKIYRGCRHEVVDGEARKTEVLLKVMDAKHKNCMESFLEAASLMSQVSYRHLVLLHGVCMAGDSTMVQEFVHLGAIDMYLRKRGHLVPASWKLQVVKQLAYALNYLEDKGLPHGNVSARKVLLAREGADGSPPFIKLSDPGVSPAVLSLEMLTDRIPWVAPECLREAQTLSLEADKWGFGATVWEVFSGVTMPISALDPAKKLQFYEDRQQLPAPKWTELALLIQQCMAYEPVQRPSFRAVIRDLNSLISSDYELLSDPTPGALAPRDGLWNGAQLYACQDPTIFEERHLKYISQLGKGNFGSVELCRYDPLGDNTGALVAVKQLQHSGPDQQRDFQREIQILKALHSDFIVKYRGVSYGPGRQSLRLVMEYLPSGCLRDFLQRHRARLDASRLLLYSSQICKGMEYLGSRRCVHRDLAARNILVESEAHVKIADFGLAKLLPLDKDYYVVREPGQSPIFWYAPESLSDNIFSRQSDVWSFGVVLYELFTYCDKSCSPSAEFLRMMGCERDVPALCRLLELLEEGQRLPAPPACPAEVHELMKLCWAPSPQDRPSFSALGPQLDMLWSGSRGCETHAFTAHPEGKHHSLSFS
JAK3/JAK1, sequence (P23458 whole entry): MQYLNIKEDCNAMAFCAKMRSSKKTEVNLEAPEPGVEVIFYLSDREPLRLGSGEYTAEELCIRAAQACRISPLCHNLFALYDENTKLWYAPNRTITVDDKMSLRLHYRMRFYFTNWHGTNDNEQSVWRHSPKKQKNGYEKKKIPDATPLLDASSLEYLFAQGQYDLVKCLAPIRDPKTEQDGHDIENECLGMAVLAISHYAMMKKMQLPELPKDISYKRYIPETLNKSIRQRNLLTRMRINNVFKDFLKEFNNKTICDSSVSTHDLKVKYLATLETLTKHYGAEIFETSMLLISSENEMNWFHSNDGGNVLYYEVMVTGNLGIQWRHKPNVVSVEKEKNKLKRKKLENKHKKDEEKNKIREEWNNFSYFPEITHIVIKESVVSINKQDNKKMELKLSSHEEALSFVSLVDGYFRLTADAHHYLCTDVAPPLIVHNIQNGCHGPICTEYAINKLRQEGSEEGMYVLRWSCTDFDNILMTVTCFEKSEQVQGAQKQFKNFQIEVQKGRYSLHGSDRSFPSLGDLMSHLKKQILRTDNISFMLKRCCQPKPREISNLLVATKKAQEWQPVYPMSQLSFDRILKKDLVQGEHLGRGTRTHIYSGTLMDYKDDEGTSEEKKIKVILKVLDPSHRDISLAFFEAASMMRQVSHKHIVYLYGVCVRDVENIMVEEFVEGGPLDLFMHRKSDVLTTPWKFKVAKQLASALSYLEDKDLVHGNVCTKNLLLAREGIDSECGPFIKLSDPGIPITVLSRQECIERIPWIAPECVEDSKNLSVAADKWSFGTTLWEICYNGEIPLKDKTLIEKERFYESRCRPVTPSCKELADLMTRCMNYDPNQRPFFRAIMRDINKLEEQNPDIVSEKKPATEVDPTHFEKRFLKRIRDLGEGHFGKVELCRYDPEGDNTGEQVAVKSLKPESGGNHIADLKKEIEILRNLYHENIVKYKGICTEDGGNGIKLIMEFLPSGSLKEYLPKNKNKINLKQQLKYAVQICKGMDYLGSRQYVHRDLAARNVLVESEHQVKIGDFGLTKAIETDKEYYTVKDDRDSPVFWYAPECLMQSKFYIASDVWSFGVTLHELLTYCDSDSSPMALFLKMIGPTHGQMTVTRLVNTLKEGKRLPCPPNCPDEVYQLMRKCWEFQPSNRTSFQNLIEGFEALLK

Cc1cnc(Nc2ccc(N3CCC(N(C)CCO)CC3)c(F)c2)nc1-c1cnn(C(C)C)c1
AUCt [1]: 2552 ng·h/mL | inhibition in vivo at 60 mg/kg [2]: 85% | IC50 [3]: 74.7 µM | Activity [4]: 11.9% | half-life [5]: 187 min | Activity [6]: 55.92% | CLH [7]: 0.0037 mL/min/mg | inhibition [8]: Dose-dependent effect | Activity [9]: 29.65% | Activity [10]: Active | IC50 [11]: 578 nM | inhibition in vivo at 60 mg/kg [12]: 94.3% | half-life [13]: 1390 min | IC50 [14]: 64.4 µM | IC50 [15]: > 100 µM | IC50 [16]: 4 nM | Activity [17]: 12.84% | Activity [18]: 5.04%
